Consider 2 molecules from patent publication US7238723B2, “Indole derivatives” (Pfizer Inc., priority 2003, dated 2007).

Data set [1] is described as follows: Moisture sorption by Dynamic Vapour Sorption (DVS). It is filed as physicochemical. Particulars: 30° C. How it is done:
The moisture sorption of eletriptan hydrobromide monohydrate was determined using a Dynamic Vapour Sorption (DVS) Automated Sorption Analyser Model DVS-1 instrument manufactured by Surface Measurements Systems Ltd., UK.
Approximately 25 mg of eletriptan hydrobromide monohydrate was accurately weighed into a sample pan. This was exposed to humidities in the range of from 0 to 90% RH. The analysis was carried out in detail in the range of from 0 to 15% RH, using 15% RH steps in the range of from 15 to 90% RH. The analysis temperature was 30° C. with a nitrogen flow rate of 200 cm^3min^−1.
Once the monohydrate has formed there is very little additional moisture sorbed and within the range 10 to 90% RH less than 0.3% w/w of water is sorbed.

Data set [2] in a line: Storage stability of the drug substance, HPLC analysis. Particulars: double polyethylene bags inside a fibreboard drum. Format: physicochemical. Here is the method:
• 1) Eletriptan hydrobromide monohydrate was stored in double polyethylene bags inside a fibreboard drum under the following conditions: • 25° C./60% RH for 9 months • 30° C./60% RH for 9 months • 40° C./75% RH for 6 months • (RH=relative humidity)

For data set [3] the following is noted: 4 weeks at 40° C. and 90% relative humidity; cited from earlier work.
The conditions of data set [4]: on further processing; cited from earlier work.

Counter-ions that a name gives are not always drawn.

On to `CN1CCC[C@@H]1Cc1c[nH]c2ccc(CCS(=O)(=O)c3ccccc3)cc12` [eletriptan hydrobromide monohydrate], for which the hygroscopicity entry in data set [1] (0 to 90% RH) is listed as “essentially non-hygroscopic”. Besides, the hydrate state result in data set [1] (above 6% RH) was “remains as a monohydrate”. Moreover, the “water lost (water of the monohydrate)” value in data set [1] (at 0% RH) is listed as 3.8 % w/w. For the same molecule, the water sorbed entry in data set [1] (within the range 10 to 90% RH) is “less than 0.3 % w/w”. For the same molecule, the “degradation on storage (HPLC)” value in data set [2] (25° C./60% RH for 9 months), in data set [2] (30° C./60% RH for 9 months) and in data set [2] (40° C./75% RH for 6 months) was “no degradation had occurred” each time.
For the molecule `Br.CN1CCC[C@@H]1Cc1c[nH]c2ccc(CCS(=O)(=O)c3ccccc3)cc12` [anhydrous eletriptan hydrobromide], the “water absorbed on standing” value in data set [3] is not above 1.23 % by weight. In addition, the “stability of the solid form” value in data set [4] was “unstable and to undergo polymorphic conversion to the alpha-form”.
